Assay results as given in USRE29675E, “O-(Halophenylcarbamyl)-N-(halophenyl) glycolamides” (Stauffer Chemical Company, priority 1977, dated 1978).
Converted amounts (≈) assume the structure as drawn.

Experiments:
Format in all cases: cell-based
[1] = test system: Brevibacterium ammoniagenes; assay: In Vitro Agar Screening Test, bacteria; settings: Corynebacterium ammoniagenes, nutrient agar, 37° C., read-out: Minimum Inhibitory Concentration
Protocol: (§1) This test measures the bactericidal, fungicidal and algaecidal properties of a compound when in contact with growing bacteria, fungi or algae in an artifical medium. The test is conducted by adding 20 ml. portions of a suitable warm sterile agar solution into 20 × 100 mm. Petri dishes. Then, the test compound, in 0.5 percent acetone solution, is added to the Petri dishes at levels of 1, 10 and 50 μg/ml. and mixed with the warm mobile agar solution. The treated agar mixture is then allowed to come to room temperature and solidify. Cells of the chosen organism are streaked on the surface of the solidified agar and are then incubated for such lengths of time that untreated samples containing no toxicant show luxurious growth typical of the particular organism. This time varies from 24 hours to one week depending on the particular organism. The fungi are incubated at 30° C. and the bacteria are incubated at 37° C. The algae are incubated at room temperature under artificial light. Nutrient agar is used as the medium in this test for the bacteria. Potato dextrose agar is used as the medium for the fungi with the exception of Trichophyton mentagrophytes for which Emmons agar is used. A modified Jack Meyers agar is used for the growth of the algae.
(§2) The extent of growth is noted at the end of the incubation period.
(§3) Representative organisms used in this test are as follows: […]

stapylococcus aureus = assay: In Vitro Vial Test (bactericidal, nutrient broth); settings: 168 h, sealed vial incubated one week, read-out: Concentration (PPM) Which Inhibited Growth
Protocol: The following test illustrates utility of the compounds in controlling bacteria. This test measures the bactericidal properties of a compound when in contact with a growing bacterium. The test is conducted by partially filling a 1-ounce vial with nutrient broth. Next the test compound is added to the vial at a certain concentration, expressed in parts per million, and mixed with the broth. A water suspension of cells of stapylococcus aureus is added. The vial is then sealed and incubated for one week.

Aspergillus oryzae = assay: In Vitro Agar Screening Test, fungi; settings: potato dextrose agar, 30° C., read-out: Minimum Inhibitory Concentration
Protocol: as §1, §2, §3

Staphylococcus aureus = assay: In Vitro Agar Screening Test, bacteria; settings: Stapylococcus aureus, nutrient agar, 37° C., read-out: Minimum Inhibitory Concentration
Protocol: as §1, §2, §3

Bacillus cereus = assay: In Vitro Agar Screening Test, bacteria; settings: nutrient agar, 37° C., indicates partial control at this concentration, read-out: Minimum Inhibitory Concentration
Protocol: as §1, §2, §3

[2] = test system: Desulfovibrio desulfuricans; assay: Sulfate Reducing Bacteria In Vitro Test; settings: Sulfate API broth with tryptone, anaerobic, room temperature, 3 to 5 days, unit from method text, read-out: minimum inhibitory concentration necessary to control the organism
Protocol: This test measures the bactericidal properties of a compound when in contact with a sulfate reducing bacteria, specifically Desulfovibrio desulfuricans. The test is conducted by dissolving the test compound in acetone to give an 0.5 percent solution. This toxicant is added to vials containing sterile Sulfate API broth with tryptone under anaerobic conditions at such levels to give final toxicant concentrations of 1, 5, 10 and 50 μg/ml. of solution. An inoculant solution of 0.5 ml of the growing organism, Desulfovibrio desulfuricans, is added to the vials followed by sufficient sterile distilled water to give a total of 10 ml. of solution in the vials. […] The following is a summary of the minimum inhibitory concentration necessary to control the organism.

Scenedesmus obliquus = assay: In Vitro Agar Screening Test, algae; settings: Tetradesmus obliquus, modified Jack Meyers agar, room temperature, artificial light, indicates partial control at this concentration, read-out: Minimum Inhibitory Concentration
Protocol: as §1, §2, §3

[3] = test system: Trichophyton mentagrophytes; assay: In Vitro Agar Screening Test, fungi; settings: Emmons agar, 30° C., indicates partial control at this concentration, read-out: Minimum Inhibitory Concentration
Protocol: as §1, §2, §3

Enterobacter aerogenes = assay: In Vitro Agar Screening Test, bacteria; settings: Klebsiella aerogenes, nutrient agar, 37° C., indicates partial control at this concentration, read-out: Minimum Inhibitory Concentration
Protocol: as §1, §2, §3

MIC [1]	MIC (Aspergillus oryzae)	MIC (Staphylococcus aureus)	MIC [2]	SMILES	MIC (stapylococcus aureus)	other results
5 µg/mL (≈ 13.4 µM)	> 50 µg/mL	1 µg/mL (≈ 2.68 µM)	10 µg/mL (≈ 26.8 µM)	O=C(COC(=O)Nc1cccc(Cl)c1)Nc1ccc(Cl)c(Cl)c1 [Compound 2, O-(3-Chlorophenylcarbamyl)-N-(3,4-dichlorophenyl)-glycolamide]	0.25 µg/mL (≈ 0.669 µM)	MIC (Bacillus cereus): 1 µg/mL (≈ 2.68 µM)
–	–	–	–	O=C(COC(=O)Nc1ccc(Cl)c(Cl)c1)Nc1ccc(Cl)cc1 [Compound 4]	1 µg/mL (≈ 2.68 µM)	–
5 µg/mL (≈ 13.4 µM)	5 µg/mL (≈ 13.4 µM)	1 µg/mL (≈ 2.68 µM)	50 µg/mL (≈ 134 µM)	O=C(COC(=O)Nc1ccc(Cl)cc1)Nc1ccc(Cl)c(Cl)c1 [Compound 1]	0.25 µg/mL (≈ 0.669 µM)	MIC (Scenedesmus obliquus): 1 µg/mL (≈ 2.68 µM); MIC [3]: 5 µg/mL (≈ 13.4 µM); MIC (Enterobacter aerogenes): 1 µg/mL (≈ 2.68 µM)
–	–	–	–	O=C(COC(=O)Nc1cccc(Cl)c1)Nc1ccc(Cl)cc1 [Compound 3]	5 µg/mL (≈ 14.7 µM)	–
–	–	–	–	O=C(COC(=O)Nc1cccc(Br)c1)Nc1ccc(Cl)c(Cl)c1 [Compound 6]	0.5 µg/mL (≈ 1.2 µM)	–
–	–	–	–	O=C(COC(=O)Nc1ccc(Cl)c(Cl)c1)Nc1ccc(Cl)c(Cl)c1 [Compound 5]	1 µg/mL (≈ 2.45 µM)	–
